Measured values: PMC5218480 (PLoS ONE, 2017)

Test system: MV-4-11 cells
Test: Gene expression microarray analysis (Affymetrix PrimeView) and GSEA
Type: cell-based, human
Set-up: RFU PODN (11730768_x_at) / Fold change /veh PODN (11730768_x_at) / RFU LINC00158 (11744669_a_at) / Fold change /veh LINC00158 (11744669_a_at) / RFU DUSP10 (11751237_a_at) / Fold change /veh DUSP10 (11751237_a_at) / RFU ID3 (11757404_x_at) / Fold change /veh ID3 (11757404_x_at) / RFU PLEKHG5 (11737974_s_at) / Fold change /veh PLEKHG5 (11737974_s_at) / RFU LRRC4B (11730491_at) / Fold change /veh LRRC4B (11730491_at) / RFU GIMAP4 (11747438_a_at) / Fold change /veh GIMAP4 (11747438_a_at) / RFU KRT8 (11758183_x_at) / Fold change /veh KRT8 (11758183_x_at) / RFU CNN1 (11734310_a_at) / Fold change /veh CNN1 (11734310_a_at) / RFU VPS37D (11726825_at) / Fold change /veh VPS37D (11726825_at) / RFU C10orf10 (11716522_x_at) / Fold change /veh C10orf10 (11716522_x_at) / RFU KIR2DL2 /// KIR2DL4 /// KIR2DL5A /// KIR2DL5B /// KIR2DS1 /// KIR2DS2 /// KIR2DS3 /// KIR2DS4 /// KIR3DL3 /// KIR3DL3 /// KIR3DS1 (11738374_at) / Fold change /veh KIR2DL2 /// KIR2DL4 /// KIR2DL5A /// KIR2DL5B /// KIR2DS1 /// KIR2DS2 /// KIR2DS3 /// KIR2DS4 /// KIR3DL3 /// KIR3DL3 /// KIR3DS1 (11738374_at) / RFU C1QL1 (11718748_at) / Fold change /veh C1QL1 (11718748_at) / RFU TMPRSS4 (11747572_a_at) / Fold change /veh TMPRSS4 (11747572_a_at) / RFU HAMP (11756126_x_at) / Fold change /veh HAMP (11756126_x_at) / RFU RNFT2 (11725882_a_at) / Fold change /veh RNFT2 (11725882_a_at) / RFU NR4A2 (11747474_a_at) / Fold change /veh NR4A2 (11747474_a_at) / RFU ABCC12 (11746883_a_at) / Fold change /veh ABCC12 (11746883_a_at) / RFU TMEM136 (11760407_x_at) / Fold change /veh TMEM136 (11760407_x_at) / RFU CLDN22 /// WWC2 (11732394_at) / Fold change /veh CLDN22 /// WWC2 (11732394_at) / RFU HLA-DPB1 (11760878_x_at) / Fold change /veh HLA-DPB1 (11760878_x_at) / RFU SPINT1 (11716480_a_at) / Fold change /veh SPINT1 (11716480_a_at) / RFU GAP43 (11754022_s_at) / Fold change /veh GAP43 (11754022_s_at) / RFU A4GNT (11735810_at) / Fold change /veh A4GNT (11735810_at) / RFU PRB3 (11715151_x_at) / Fold change /veh PRB3 (11715151_x_at) / RFU TUBB4B (11761932_at) / Fold change /veh TUBB4B (11761932_at) / RFU CAPN14 (11732068_a_at) / Fold change /veh CAPN14 (11732068_a_at) / RFU TMCC2 (11721928_a_at) / Fold change /veh TMCC2 (11721928_a_at) / RFU IRGQ (11745062_a_at) / Fold change /veh IRGQ (11745062_a_at) / RFU FAM174B (11720279_a_at) / Fold change /veh FAM174B (11720279_a_at) / RFU TMPRSS4 (11748680_a_at) / Fold change /veh TMPRSS4 (11748680_a_at) / RFU FAM212B (11763350_a_at) / Fold change /veh FAM212B (11763350_a_at) / RFU PLEKHG5 (11743358_a_at) / Fold change /veh PLEKHG5 (11743358_a_at) / RFU ZSCAN30 (11745921_a_at) / Fold change /veh ZSCAN30 (11745921_a_at) / RFU CMKLR1 (11741424_a_at) / Fold change /veh CMKLR1 (11741424_a_at) / RFU LOC101060620 /// MAPK8IP1 (11723275_at) / Fold change /veh LOC101060620 /// MAPK8IP1 (11723275_at) / RFU SPTSSB (11747773_x_at) / Fold change /veh SPTSSB (11747773_x_at) / RFU PRSS12 (11739890_at) / Fold change /veh PRSS12 (11739890_at) / RFU BIN1 (11741810_x_at) / Fold change /veh BIN1 (11741810_x_at) / RFU WNT11 (11732464_a_at) / Fold change /veh WNT11 (11732464_a_at) / RFU C10orf10 (11716521_a_at) / Fold change /veh C10orf10 (11716521_a_at) / RFU C5orf56 (11738089_at) / Fold change /veh C5orf56 (11738089_at) / RFU CYB561 (11721691_x_at) / Fold change /veh CYB561 (11721691_x_at) / RFU ANKRD19P (11752326_a_at) / Fold change /veh ANKRD19P (11752326_a_at) / RFU OR2T12 /// OR2T33 /// OR2T8 (11738714_s_at) / Fold change /veh OR2T12 /// OR2T33 /// OR2T8 (11738714_s_at) / RFU VCAN (11748164_a_at) / Fold change /veh VCAN (11748164_a_at) / RFU JSRP1 (11732532_at) / Fold change /veh JSRP1 (11732532_at) / RFU KRTAP10-11 (11738290_x_at) / Fold change /veh KRTAP10-11 (11738290_x_at) / RFU MYO3A (11730013_a_at) / Fold change /veh MYO3A (11730013_a_at) / RFU EBF3 (11725865_a_at) / Fold change /veh EBF3 (11725865_a_at) / RFU CAMK2N1 (11719241_x_at) / Fold change /veh CAMK2N1 (11719241_x_at) / RFU C5orf56 (11738088_a_at) / Fold change /veh C5orf56 (11738088_a_at) / RFU OLFML3 (11715873_a_at) / Fold change /veh OLFML3 (11715873_a_at) / RFU LOC100653217 /// NTM (11731650_a_at) / Fold change /veh LOC100653217 /// NTM (11731650_a_at) / RFU MAPK11 (11762145_a_at) / Fold change /veh MAPK11 (11762145_a_at) / RFU FIZ1 (11724087_x_at) / Fold change /veh FIZ1 (11724087_x_at) / RFU OASL (11726364_x_at) / Fold change /veh OASL (11726364_x_at) / RFU SOX15 (11748057_x_at) / Fold change /veh SOX15 (11748057_x_at) / RFU CD79A (11719716_a_at) / Fold change /veh CD79A (11719716_a_at) / RFU HIST1H1D (11736915_at) / Fold change /veh HIST1H1D (11736915_at) / RFU CASKIN2 (11723855_a_at) / Fold change /veh CASKIN2 (11723855_a_at) / RFU LOC730098 (11760151_x_at) / Fold change /veh LOC730098 (11760151_x_at) / RFU OR4N2 (11742367_at) / Fold change /veh OR4N2 (11742367_at) / RFU PRRT2 (11749266_a_at) / Fold change /veh PRRT2 (11749266_a_at) / RFU SNX32 (11753110_a_at) / Fold change /veh SNX32 (11753110_a_at) / RFU CDHR5 (11726645_a_at) / Fold change /veh CDHR5 (11726645_a_at) / RFU RCAN1 (11760418_a_at) / Fold change /veh RCAN1 (11760418_a_at) / RFU FAM167A (11723789_a_at) / Fold change /veh FAM167A (11723789_a_at) / RFU FAM26E (11764081_at) / Fold change /veh FAM26E (11764081_at) / RFU ISYNA1 (11749810_s_at) / Fold change /veh ISYNA1 (11749810_s_at) / RFU ACY1 (11761880_at) / Fold change /veh ACY1 (11761880_at) / RFU 11764098_at / Fold change /veh 11764098_at / RFU SAMD14 (11745864_x_at) / Fold change /veh SAMD14 (11745864_x_at) / RFU NPB (11741838_a_at) / Fold change /veh NPB (11741838_a_at) / RFU TMPRSS6 (11731388_a_at) / Fold change /veh TMPRSS6 (11731388_a_at) / RFU KRTAP10-2 (11738614_at) / Fold change /veh KRTAP10-2 (11738614_at) / RFU ARHGAP8 /// PRR5-ARHGAP8 (11727945_x_at) / Fold change /veh ARHGAP8 /// PRR5-ARHGAP8 (11727945_x_at) / RFU KRTAP5-7 /// NADSYN1 (11734609_at) / Fold change /veh KRTAP5-7 /// NADSYN1 (11734609_at) / RFU RASL12 (11751679_a_at) / Fold change /veh RASL12 (11751679_a_at) / RFU CDKN2B (11736163_a_at) / Fold change /veh CDKN2B (11736163_a_at) / RFU PRF1 (11729649_at) / Fold change /veh PRF1 (11729649_at) / RFU, ZNF638 /// ZNF638-IT1 / Fold change vs veh, ZNF638 /// ZNF638-IT1 / RFU, PANK3 / Fold change vs veh, PANK3 / RFU, SH3YL1 / Fold change vs veh, SH3YL1 / RFU, ZEB2 / Fold change vs veh, ZEB2 / RFU, NRIP1 / Fold change vs veh, NRIP1 / RFU, PTTG1IP / Fold change vs veh, PTTG1IP / RFU, CAPN2 / Fold change vs veh, CAPN2 / RFU, MED14 / Fold change vs veh, MED14 / RFU, SNORA58 / Fold change vs veh, SNORA58 / RFU, C1orf63 / Fold change vs veh, C1orf63 / RFU, LRRFIP1 / Fold change vs veh, LRRFIP1 / RFU, NDUFAF7 / Fold change vs veh, NDUFAF7 / RFU, SLC12A2 / Fold change vs veh, SLC12A2 / RFU, IBTK / Fold change vs veh, IBTK / RFU, ESF1 / Fold change vs veh, ESF1 / Fold change vs veh, TMEM50B / RFU, TAOK1 / Fold change vs veh, TAOK1 / RFU, ACBD3 / Fold change vs veh, ACBD3 / RFU, TMA16 / Fold change vs veh, TMA16 / RFU, RWDD3 / Fold change vs veh, RWDD3 / RFU, BCAT1 / Fold change vs veh, BCAT1 / RFU, EDEM3 / Fold change vs veh, EDEM3 / RFU, TMEM33 / Fold change vs veh, TMEM33 / RFU, WDR75 / Fold change vs veh, WDR75 / RFU, AHCTF1 / Fold change vs veh, AHCTF1 / RFU, TFRC / Fold change vs veh, TFRC / RFU, ZDHHC17 / Fold change vs veh, ZDHHC17 / RFU, NOM1 / Fold change vs veh, NOM1 / RFU, ARL8B / Fold change vs veh, ARL8B / RFU, ZBTB11 / Fold change vs veh, ZBTB11 / RFU, TAMM41 / Fold change vs veh, TAMM41 / RFU, KIAA1704 /// LOC100996395 / Fold change vs veh, KIAA1704 /// LOC100996395 / RFU, ING1 / Fold change vs veh, ING1 / RFU, TRMT61B / Fold change vs veh, TRMT61B / RFU, FUBP3 / Fold change vs veh, FUBP3 / RFU, TP53 / Fold change vs veh, TP53 / RFU, TNKS2 / Fold change vs veh, TNKS2 / RFU, ZFP14 / Fold change vs veh, ZFP14 / RFU, ACTR2 / Fold change vs veh, ACTR2 / RFU, PPP3R1 / Fold change vs veh, PPP3R1 / RFU, PIK3R1 / Fold change vs veh, PIK3R1 / RFU, HNRNPA1 / Fold change vs veh, HNRNPA1 / RFU, RNF170 / Fold change vs veh, RNF170 / RFU, ZNF28 / Fold change vs veh, ZNF28 / RFU, RNGTT / Fold change vs veh, RNGTT / RFU, OGT / Fold change vs veh, OGT / RFU, BRD1 / Fold change vs veh, BRD1 / RFU, MARS / Fold change vs veh, MARS / RFU, ZNF655 / Fold change vs veh, ZNF655 / RFU, FAHD1 / Fold change vs veh, FAHD1 / RFU, BDP1 / Fold change vs veh, BDP1 / RFU, LRRCC1 / Fold change vs veh, LRRCC1 / RFU, ARID1A / Fold change vs veh, ARID1A / RFU, ZNF146 / Fold change vs veh, ZNF146 / RFU, ZNF330 / Fold change vs veh, ZNF330 / RFU, GPN3 / Fold change vs veh, GPN3 / RFU, C9orf123 / Fold change vs veh, C9orf123 / RFU, N4BP2L2 / Fold change vs veh, N4BP2L2 / RFU, ARFIP1 / Fold change vs veh, ARFIP1 / RFU, FAM179B / Fold change vs veh, FAM179B / RFU, BCL10 / Fold change vs veh, BCL10 / RFU, UHRF1BP1L / Fold change vs veh, UHRF1BP1L / RFU, BET1 / Fold change vs veh, BET1 / RFU, CNOT2 / Fold change vs veh, CNOT2 / RFU, ZNF268 / Fold change vs veh, ZNF268 / Fold change vs veh, ZNF507 / RFU, DGCR2 / Fold change vs veh, DGCR2 / RFU, WDSUB1 / Fold change vs veh, WDSUB1 / Fold change vs veh, HSP90B1 /// MIR3652 / RFU, ADSS / Fold change vs veh, ADSS / RFU, GK / Fold change vs veh, GK / RFU, ZNF148 / Fold change vs veh, ZNF148 / RFU, TAF9 / Fold change vs veh, TAF9 / RFU, SLC1A5 / Fold change vs veh, SLC1A5 / RFU, SLMO2 / Fold change vs veh, SLMO2 / RFU, ABCC4 / Fold change vs veh, ABCC4 / RFU, LOC101060439 /// RAP1B / Fold change vs veh, LOC101060439 /// RAP1B / RFU, RFX7 / Fold change vs veh, RFX7 / RFU, GTPBP10 / Fold change vs veh, GTPBP10 / RFU, CNEP1R1 / Fold change vs veh, CNEP1R1 / RFU, BIVM-ERCC5 /// ERCC5 / Fold change vs veh, BIVM-ERCC5 /// ERCC5 / RFU, ILF3 / Fold change vs veh, ILF3 / RFU 11762660_at / Fold change /veh 11762660_at / RFU VCAN (11757783_s_at) / Fold change /veh VCAN (11757783_s_at) / RFU DDX43 (11728927_at) / Fold change /veh DDX43 (11728927_at) / RFU KRT8 (11758188_x_at) / Fold change /veh KRT8 (11758188_x_at) / RFU NKD1 (11759106_at) / Fold change /veh NKD1 (11759106_at) / RFU SRD5A1 (11742802_a_at) / Fold change /veh SRD5A1 (11742802_a_at) / RFU TPSAB1 /// TPSB2 (11721975_s_at) / Fold change /veh TPSAB1 /// TPSB2 (11721975_s_at) / RFU GSTM3 (11746129_a_at) / Fold change /veh GSTM3 (11746129_a_at) / RFU IL23R (11737362_x_at) / Fold change /veh IL23R (11737362_x_at) / RFU TMEM51 (11727254_a_at) / Fold change /veh TMEM51 (11727254_a_at) / RFU PIWIL2 (11732686_x_at) / Fold change /veh PIWIL2 (11732686_x_at) / RFU ORM1 (11744905_x_at) / Fold change /veh ORM1 (11744905_x_at) / RFU CCDC152 (11743942_at) / Fold change /veh CCDC152 (11743942_at) / RFU ECM1 (11717891_a_at) / Fold change /veh ECM1 (11717891_a_at) / RFU IL23R (11748794_a_at) / Fold change /veh IL23R (11748794_a_at) / RFU TNFAIP8L3 (11732012_x_at) / Fold change /veh TNFAIP8L3 (11732012_x_at) / RFU MBOAT4 (11741988_at) / Fold change /veh MBOAT4 (11741988_at) / RFU 11764193_at / Fold change /veh 11764193_at / RFU TMEM53 (11763286_at) / Fold change /veh TMEM53 (11763286_at) / RFU MAGEB2 (11727129_at) / Fold change /veh MAGEB2 (11727129_at) / RFU TMEM200A (11744735_a_at) / Fold change /veh TMEM200A (11744735_a_at) / RFU CCDC152 (11751479_a_at) / Fold change /veh CCDC152 (11751479_a_at) / RFU FAM211A (11726209_a_at) / Fold change /veh FAM211A (11726209_a_at) / RFU RGS16 (11746705_a_at) / Fold change /veh RGS16 (11746705_a_at) / RFU VCAN (11755009_s_at) / Fold change /veh VCAN (11755009_s_at) / RFU RHOB (11743442_s_at) / Fold change /veh RHOB (11743442_s_at) / RFU RGS16 (11720943_a_at) / Fold change /veh RGS16 (11720943_a_at) / RFU RGS16 (11720944_at) / Fold change /veh RGS16 (11720944_at) / RFU, VPS4B / Fold change vs veh, VPS4B / RFU, CREB1 / Fold change vs veh, CREB1 / RFU, DNAJC13 / Fold change vs veh, DNAJC13 / RFU, GNAQ / Fold change vs veh, GNAQ / RFU, CDK5R1 / Fold change vs veh, CDK5R1 / RFU, ZRANB3 / Fold change vs veh, ZRANB3 / RFU, CUL4A / Fold change vs veh, CUL4A / RFU, CCNY / Fold change vs veh, CCNY / RFU, UFL1 / Fold change vs veh, UFL1 / RFU, COG3 / Fold change vs veh, COG3 / RFU, DIAPH2 / Fold change vs veh, DIAPH2 / RFU, SKA2 / Fold change vs veh, SKA2 / RFU, AFF3 / Fold change vs veh, AFF3 / RFU, LMF1 / Fold change vs veh, LMF1 / RFU, IPO11 / Fold change vs veh, IPO11 / RFU, DFFB / Fold change vs veh, DFFB / RFU, FOXP1 / Fold change vs veh, FOXP1 / RFU, CARD8 / Fold change vs veh, CARD8 / RFU, STRN3 / Fold change vs veh, STRN3 / RFU, ADK / Fold change vs veh, ADK / RFU, RASSF2 / Fold change vs veh, RASSF2 / RFU, WIPF1 / Fold change vs veh, WIPF1 / RFU, LARP1B / Fold change vs veh, LARP1B / RFU, RASA1 / Fold change vs veh, RASA1 / RFU, RB1 / Fold change vs veh, RB1 / RFU, PPFIA1 / Fold change vs veh, PPFIA1 / RFU, MAT2A / Fold change vs veh, MAT2A / RFU, CCT5 / Fold change vs veh, CCT5 / RFU, WDR92 / Fold change vs veh, WDR92 / RFU, CUX1 / Fold change vs veh, CUX1 / RFU, TTC7A / Fold change vs veh, TTC7A / RFU, TMEM135 / Fold change vs veh, TMEM135 / RFU, DEPTOR / Fold change vs veh, DEPTOR / RFU, CPM / Fold change vs veh, CPM / RFU, DNAJB6 / Fold change vs veh, DNAJB6 / RFU, CACNA2D3 / Fold change vs veh, CACNA2D3 / RFU, DTX4 / Fold change vs veh, DTX4 / RFU, TFCP2 / Fold change vs veh, TFCP2 / RFU, GMCL1 /// GMCL1P1 / Fold change vs veh, GMCL1 /// GMCL1P1 / RFU, AEBP2 / Fold change vs veh, AEBP2 / RFU, SNHG1 /// SNORD22 /// SNORD25 /// SNORD26 /// SNORD27 /// SNORD28 /// SNORD29 /// SNORD31 / Fold change vs veh, SNHG1 /// SNORD22 /// SNORD25 /// SNORD26 /// SNORD27 /// SNORD28 /// SNORD29 /// SNORD31 / Fold change (Aza/veh), C12orf56 (ProbeSet 11735607_a_at) / Fold change (ACY-1035/veh), C12orf56 (ProbeSet 11735607_a_at) / Fold change (Aza/veh), FGFR1OP (ProbeSet 11751329_s_at) / Fold change (ACY-1035/veh), FGFR1OP (ProbeSet 11751329_s_at) / Fold change (Aza/veh), VPS36 (ProbeSet 11739960_a_at) / Fold change (ACY-1035/veh), VPS36 (ProbeSet 11739960_a_at) / RFU SYPL1 (11715823_x_at) / Fold change /veh SYPL1 (11715823_x_at) / RFU IGFBP7 (11715501_s_at) / Fold change /veh IGFBP7 (11715501_s_at) / RFU REEP3 (11722064_at) / Fold change /veh REEP3 (11722064_at) / RFU IGLL1 (11728026_x_at) / Fold change /veh IGLL1 (11728026_x_at): dose or concentration left out as unconfirmed
Conditions: ProbeSet 11717523_x_at; LIST B

Nc1ccc(-c2cccs2)cc1NC(=O)c1ccc2c(c1)cc(C1CC1)n2CCN1CCOCC1 [ACY-1035]
Fold change vs veh, TMEM50B: 0.88
